Experiments:
ducksalad = assay: Test B flooded paddy test; format: in vivo, Heteranthera limosa; conditions: 125 g ai/ha, scale 0 to 100 (0 no effect, 100 complete control)
Summary of the method: (§1)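 Visual control ratings, 0–100 versus untreated controls, taken after 13 to 15 days in the greenhouse. Blackgrass received a postemergence spray at the 1- to 4-leaf stage (2–18 cm); ducksalad, umbrella sedge and barnyardgrass were flooded-paddy treated at 2 leaves.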

wheat = assay: Test B postemergence herbicide test; format: in vivo, Triticum aestivum; design: key to Wheat plant response rating: 0 = no effect, 100 = complete control
Summary of the method: (§2)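 Visual ratings, 0 (no effect) to 100 (complete control), made versus controls after 13–15 d greenhouse. Paddy plants treated at 2-leaf stage; postemergence plants at 1- to 4-leaf stage, 2–18 cm tall.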

giant foxtail = assay: Test B pre-/postemergence herbicide test; format: in vivo, Setaria faberi
Summary of the method: (§3)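 Plants compared with untreated controls 13–15 days post-treatment and given a visual 0–100 injury score. Applications: preemergence to seeds; postemergence at 1- to 4-leaf (2–18 cm); paddy species flooded, 2-leaf stage. Vehicle non-phytotoxic, surfactant included.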

large crabgrass = assay: Test B pre-/postemergence herbicide test; format: in vivo, Digitaria sanguinalis
Summary of the method: as §3

corn = assay: Test B pre-/postemergence herbicide test; format: in vivo, Zea mays
Summary of the method: as §3

cocklebur = assay: Test B pre-/postemergence herbicide test; format: in vivo, Xanthium strumarium
Summary of the method: (§4)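 Response was scored visually 13 to 15 days after treatment against untreated greenhouse controls, 0 meaning no effect and 100 complete control. Formulations (solvent mixture plus surfactant) went onto soil after planting, onto foliage of 1- to 4-leaf plants, and onto 2-leaf plants in a flooded paddy set including rice and barnyardgrass.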

wild oat = assay: Test B postemergence herbicide test; format: in vivo, Avena fatua
Summary of the method: as §2

[1] = system: small flower umbrella sedge; assay: Test B flooded paddy test; format: in vivo, Cyperus difformis; conditions: 125 g ai/ha, scale 0 to 100 (0 no effect, 100 complete control)
Summary of the method: as §1

velvetleaf = assay: Test B pre-/postemergence herbicide test; format: in vivo, Abutilon theophrasti
Summary of the method: as §3

pigweed = assay: Test B pre-/postemergence herbicide test; format: in vivo, Amaranthus retroflexus
Summary of the method: as §3

rice = assay: Test B flooded paddy test; format: in vivo, Oryza sativa; conditions: 125 g ai/ha, scale 0 to 100 (0 no effect, 100 complete control)
Summary of the method: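 Formulated test chemicals went onto postemergence plants measuring 2 to 18 cm, at one to four leaves. For the paddy assay, species had reached two leaves. Scoring took place 13–15 days later by eye, relative to untreated plants, using 0 for no effect up to 100 for full control.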

blackgrass = assay: Test B postemergence herbicide test; format: in vivo, Alopecurus myosuroides
Summary of the method: as §1

barnyardgrass [2] = assay: Test B flooded paddy test; format: in vivo, Echinochloa crus-galli; conditions: 125 g ai/ha, scale 0 to 100 (0 no effect, 100 complete control)
Summary of the method: as §1

lambsquarters = assay: Test B pre-/postemergence herbicide test; format: in vivo, Chenopodium album
Summary of the method: as §3

morningglory = assay: Test B pre-/postemergence herbicide test; format: in vivo, Ipomoea coccinea
Summary of the method: as §4

Surinam grass = assay: Test B pre-/postemergence herbicide test; format: in vivo, Urochloa decumbens
Summary of the method: as §3

barnyardgrass [3] = assay: Test B pre-/postemergence herbicide test; format: in vivo, Echinochloa crus-galli; conditions: for Barnyardgrass plant response rating: Postemergence, scale 0 (no effect) to 100 (complete control)
Summary of the method: as §4

[4] = 500 g ai/ha, scale 0 to 100, 0 no effect, 100 complete control, preemergence
[5] = Postemergence, 500 g ai/ha, scale 0 (no effect) to 100 (complete control)
[6] = postemergence, 125 g ai/ha, scale 0 to 100
[7] = 125 g ai/ha, 0 is no effect, 100 is complete control, preemergence

In the case of CCOC(=O)c1cccc(NC(=O)c2nn(C(C)(C)C)nc2Br)c1 [Compound 432], the “Ducksalad plant response rating” value (ducksalad) is reported as 30, the “Wheat plant response rating” value (wheat; [4]) is reported as 0 and the “Wheat plant response rating” value (wheat; [5]) is reported as 60. The “Wheat plant response rating” value (wheat; [6]) was 50, the “Plant response rating (0 to 100 scale), Foxtail, Giant” value (giant foxtail; [7]) was 40 and the “Foxtail, Giant plant response rating” value (giant foxtail; [5]) was 40. The “Foxtail, Giant plant response rating” value (giant foxtail; [6]) was 0, the “Plant response rating (0 to 100 scale), Crabgrass, Large” value (large crabgrass; [7]) was 30 and the “Crabgrass, Large plant response rating” value (large crabgrass; [5]) was 30. For the same compound, the “Crabgrass, Large plant response rating” value (large crabgrass; [6]) was 10, the “Plant response rating (0 to 100 scale), Corn” value (corn; [7]) was 0 and the “Corn plant response rating” value (corn; [5]) was 30. For the same compound, the “Corn plant response rating” value (corn; [6]) was 30, the “Plant response rating (0 to 100 scale), Cocklebur” value (cocklebur; [7]) was 0 and the “Cocklebur plant response rating” value (cocklebur; [5]) was 70. The “Cocklebur plant response rating” value (cocklebur; [6]) was 40, the “Oat, Wild plant response rating” value (wild oat; [5]) was 60 and the “Oat, Wild plant response rating” value (wild oat; [6]) was 50. The “Sedge, Umbrella plant response rating” value [1] was 80, the “Plant response rating (0 to 100 scale), Velvetleaf” value (velvetleaf; [7]) was 0 and the “Velvetleaf plant response rating” value (velvetleaf; [5]) was 60. The “Velvetleaf plant response rating” value (velvetleaf; [6]) was 50, the “Plant response rating (0 to 100 scale), Pigweed” value (pigweed; [7]) was 0 and the “Pigweed plant response rating” value (pigweed; [5]) was 10. For the same compound, the “Pigweed plant response rating” value (pigweed; [6]) was 0, the “Rice plant response rating” value (rice) was 0 and the “Blackgrass plant response rating” value (blackgrass; [5]) was 40. For the same compound, the “Blackgrass plant response rating” value (blackgrass; [6]) was 40, the “Barnyardgrass plant response rating” value (barnyardgrass [2]) was 30 and the “Plant response rating (0 to 100 scale), Lambsquarters” value (lambsquarters; [7]) was 0. For the same compound, the “Lambsquarters plant response rating” value (lambsquarters; [5]) was 30, the “Lambsquarters plant response rating” value (lambsquarters; [6]) was 0 and the “Plant response rating (0 to 100 scale), Morningglory” value (morningglory; [7]) was 0. The “Morningglory plant response rating” value (morningglory; [5]) was 30, the “Morningglory plant response rating” value (morningglory; [6]) was 20 and the “Plant response rating (0 to 100 scale), Surinam Grass” value (Surinam grass; [7]) was 10. The “Surinam Grass plant response rating” value (Surinam grass; [5]) was 70, the “Surinam Grass plant response rating” value (Surinam grass; [6]) was 10 and the “Plant response rating (0 to 100 scale), Barnyardgrass” value (barnyardgrass [3]; [7]) was 10. The “Barnyardgrass plant response rating” value (barnyardgrass [3]; 125 g ai/ha) was 20 and the “Barnyardgrass plant response rating” value (barnyardgrass [3]; 500 g ai/ha) was 60.

CCNC(=O)c1cccc(NC(=O)c2nn(C(C)(C)C)nc2Br)c1 [Compound 434] was tested, and the “Ducksalad plant response rating” value (ducksalad) was 70, the “Wheat plant response rating” value (wheat; [4]) was 90 and the “Wheat plant response rating” value (wheat; [5]) was 50. For the same compound, the “Wheat plant response rating” value (wheat; [6]) was 40, the “Foxtail, Giant plant response rating” value (giant foxtail; [5]) was 30 and the “Foxtail, Giant plant response rating” value (giant foxtail; [6]) was 20. The “Crabgrass, Large plant response rating” value (large crabgrass; [5]) was 30, the “Crabgrass, Large plant response rating” value (large crabgrass; [6]) was 20 and the “Corn plant response rating” value (corn; [5]) was 40. For the same compound, the “Corn plant response rating” value (corn; [6]) was 40, the “Cocklebur plant response rating” value (cocklebur; [5]) was 70 and the “Cocklebur plant response rating” value (cocklebur; [6]) was 50. The “Oat, Wild plant response rating” value (wild oat; [5]) was 60, the “Oat, Wild plant response rating” value (wild oat; [6]) was 50 and the “Sedge, Umbrella plant response rating” value [1] was 90. For the same compound, the “Velvetleaf plant response rating” value (velvetleaf; [5]) was 20, the “Velvetleaf plant response rating” value (velvetleaf; [6]) was 10 and the “Pigweed plant response rating” value (pigweed; [5]) was 60. The “Pigweed plant response rating” value (pigweed; [6]) was 40, the “Rice plant response rating” value (rice) was 70 and the “Blackgrass plant response rating” value (blackgrass; [5]) was 50. The “Blackgrass plant response rating” value (blackgrass; [6]) was 30, the “Barnyardgrass plant response rating” value (barnyardgrass [2]) was 60 and the “Lambsquarters plant response rating” value (lambsquarters; [5]) was 70. For the same compound, the “Lambsquarters plant response rating” value (lambsquarters; [6]) was 40, the “Morningglory plant response rating” value (morningglory; [5]) was 70 and the “Morningglory plant response rating” value (morningglory; [6]) was 60. For the same compound, the “Surinam Grass plant response rating” value (Surinam grass; [5]) was 20, the “Surinam Grass plant response rating” value (Surinam grass; [6]) was 10 and the “Barnyardgrass plant response rating” value (barnyardgrass [3]; 125 g ai/ha) was 10. The “Barnyardgrass plant response rating” value (barnyardgrass [3]; 500 g ai/ha) was 30.

In the case of CC(C)(C)n1nc(Br)c(C(=O)Nc2cccc(C(=O)NC3CC3)c2)n1 [Compound 435], the “Ducksalad plant response rating” value (ducksalad) is reported as 0, the “Wheat plant response rating” value (wheat; [4]) is reported as 10 and the “Wheat plant response rating” value (wheat; [5]) is reported as 60. The “Wheat plant response rating” value (wheat; [6]) was 20, the “Foxtail, Giant plant response rating” value (giant foxtail; [5]) was 30 and the “Foxtail, Giant plant response rating” value (giant foxtail; [6]) was 20. The “Crabgrass, Large plant response rating” value (large crabgrass; [5]) was 30, the “Crabgrass, Large plant response rating” value (large crabgrass; [6]) was 10 and the “Corn plant response rating” value (corn; [5]) was 30. For the same compound, the “Corn plant response rating” value (corn; [6]) was 20, the “Cocklebur plant response rating” value (cocklebur; [5]) was 20 and the “Cocklebur plant response rating” value (cocklebur; [6]) was 20. For the same compound, the “Oat, Wild plant response rating” value (wild oat; [5]) was 60, the “Oat, Wild plant response rating” value (wild oat; [6]) was 50 and the “Sedge, Umbrella plant response rating” value [1] was 0. The “Velvetleaf plant response rating” value (velvetleaf; [5]) was 20, the “Velvetleaf plant response rating” value (velvetleaf; [6]) was 10 and the “Pigweed plant response rating” value (pigweed; [5]) was 60. The “Pigweed plant response rating” value (pigweed; [6]) was 40, the “Rice plant response rating” value (rice) was 0 and the “Blackgrass plant response rating” value (blackgrass; [5]) was 30. The “Blackgrass plant response rating” value (blackgrass; [6]) was 20, the “Barnyardgrass plant response rating” value (barnyardgrass [2]) was 0 and the “Lambsquarters plant response rating” value (lambsquarters; [5]) was 60. The “Lambsquarters plant response rating” value (lambsquarters; [6]) was 50, the “Morningglory plant response rating” value (morningglory; [5]) was 90 and the “Morningglory plant response rating” value (morningglory; [6]) was 70. For the same compound, the “Surinam Grass plant response rating” value (Surinam grass; [5]) was 30, the “Surinam Grass plant response rating” value (Surinam grass; [6]) was 20 and the “Barnyardgrass plant response rating” value (barnyardgrass [3]; 125 g ai/ha) was 10. For the same compound, the “Barnyardgrass plant response rating” value (barnyardgrass [3]; 500 g ai/ha) was 10.
